Like-named read-outs stand apart in the source and are kept apart here.
Key:
ITK = molecular target: T1, ITK (Homo sapiens, UniProt Q08881); assay: Inhibitory activity against ITK, ADP-Glo Kinase system (Promega); assay type: biochemical
T1 construct: purchased Signalchem I13-11G-10
T1 sequence (Q08881 1-620): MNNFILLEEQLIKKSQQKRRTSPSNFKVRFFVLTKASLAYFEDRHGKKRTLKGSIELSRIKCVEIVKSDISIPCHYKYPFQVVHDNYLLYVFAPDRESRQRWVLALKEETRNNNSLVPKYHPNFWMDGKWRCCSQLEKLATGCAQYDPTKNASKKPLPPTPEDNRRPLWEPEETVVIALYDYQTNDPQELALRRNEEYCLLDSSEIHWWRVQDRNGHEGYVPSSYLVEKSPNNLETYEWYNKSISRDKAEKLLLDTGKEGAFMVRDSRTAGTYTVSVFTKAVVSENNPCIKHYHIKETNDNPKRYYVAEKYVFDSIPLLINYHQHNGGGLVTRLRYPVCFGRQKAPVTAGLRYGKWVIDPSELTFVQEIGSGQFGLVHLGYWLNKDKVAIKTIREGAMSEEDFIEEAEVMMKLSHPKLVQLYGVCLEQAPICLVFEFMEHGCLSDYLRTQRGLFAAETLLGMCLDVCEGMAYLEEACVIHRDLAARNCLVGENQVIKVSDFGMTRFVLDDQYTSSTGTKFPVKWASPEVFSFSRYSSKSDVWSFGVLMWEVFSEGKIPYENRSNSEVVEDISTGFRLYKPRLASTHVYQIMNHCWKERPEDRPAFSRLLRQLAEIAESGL
Procedure, shortened: (§1)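 ADP-Glo luminescent ADP detection with recombinant human ITK (4 ng/reaction) or BTK (10 ng/reaction) and poly(Glu4,Tyr1) substrate at 0.2 µg/µl. Buffer: Tris pH 7.5, MgCl2, MnCl2, BSA, DTT. ATP 1 mM or Km (BTK 10 µM, ITK 25 µM); 1% DMSO; 1 h at 30°C; IC50 from curve fit.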

BTK = molecular target: T2, BTK (Homo sapiens, UniProt Q06187); assay: Inhibitory activity against BTK, ADP-Glo Kinase system (Promega); assay type: biochemical
T2 construct: purchased Signalchem B10-10H
Procedure, shortened: as §1

[1] = 1mM ATP, read-out: ITK IC50(nM) 1mM ATP
[2] = 1mM ATP, read-out: BTK IC50(nM) 1mM ATP
[3] = Km ATP (ITK: 25uM), read-out: ITK IC50(nM) Km ATP
[4] = Km ATP (BTK: 10 uM), read-out: BTK IC50(nM) Km ATP

T2 sequence (Q06187 whole entry): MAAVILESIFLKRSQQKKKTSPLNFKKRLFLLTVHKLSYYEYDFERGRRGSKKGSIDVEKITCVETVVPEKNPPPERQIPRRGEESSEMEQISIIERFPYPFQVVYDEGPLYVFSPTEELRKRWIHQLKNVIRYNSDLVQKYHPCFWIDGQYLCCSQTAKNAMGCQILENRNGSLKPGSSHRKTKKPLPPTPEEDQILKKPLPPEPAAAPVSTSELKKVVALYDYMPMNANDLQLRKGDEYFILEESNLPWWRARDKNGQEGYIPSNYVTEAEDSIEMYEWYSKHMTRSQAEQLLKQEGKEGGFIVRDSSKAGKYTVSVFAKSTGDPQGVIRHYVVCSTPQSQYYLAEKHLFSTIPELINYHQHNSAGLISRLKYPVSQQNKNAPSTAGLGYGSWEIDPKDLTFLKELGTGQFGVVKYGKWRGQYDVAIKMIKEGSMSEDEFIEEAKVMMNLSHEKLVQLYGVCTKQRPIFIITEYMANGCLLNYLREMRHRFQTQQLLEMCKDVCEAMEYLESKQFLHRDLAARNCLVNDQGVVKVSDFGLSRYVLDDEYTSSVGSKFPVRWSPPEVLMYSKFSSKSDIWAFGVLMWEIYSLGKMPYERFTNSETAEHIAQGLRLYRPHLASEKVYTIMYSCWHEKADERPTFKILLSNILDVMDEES

IC50 (ITK; [1]) [nM] | IC50 (BTK; [2]) [nM] | IC50 (ITK; [3]) [nM] | IC50 (BTK; [4]) [nM] | Compound
20 to 100 | ≤ 20 |  |  | C=CC(=O)N1CC[C@H](Oc2nc(Nc3cc(OC)ncn3)cc3c2ccn3C(C)C)C1 [Example 103, (S)-1-(3-((1-isopropyl-6-((6-methoxypyrimidin-4-yl)amino)-1H-pyrrolo[3,2-c]pyridin-4-yl)oxy)pyrrolidin-1-yl)prop-2-en-1-one]
≤ 20 | ≤ 20 |  |  | C=CC(=O)N1CC(Oc2nc(Nc3ncc(C)s3)cc3c2ccn3C2CCCC2)C1 [Example 142, 1-(3-((1-cyclopentyl-6-((5-methylthiazol-2-yl)amino)-1H-pyrrolo[3,2-c]pyridin-4-yl)oxy)azetidin-1-yl)prop-2-en-1-one]
 |  | ≤ 20 | ≤ 20 | C=CC(=O)N1CC[C@H](Oc2nc(Nc3ncc(C)s3)cc3c2ccn3Cc2ccccn2)C1 [Example 117, (S)-1-(3-((6-((5-methylthiazol-2-yl)amino)-1-(pyridin-2-ylmethyl)-1H-pyrrolo[3,2-c]pyridin-4-yl)oxy)pyrrolidin-1-yl)prop-2-en-1-one]
 |  | ≤ 20 | ≤ 20 | C=CC(=O)Nc1cccc(-c2nc(Nc3ncc(C)s3)cc3c2ccn3C)c1F [Example 51, N-(2-fluoro-3-(1-methyl-6-((5-methylthiazol-2-yl)amino)-1H-pyrrolo[3,2-c]pyridin-4-yl)phenyl)acrylamide]
≤ 20 | ≤ 20 | ≤ 20 | ≤ 20 | C=CC(=O)N1C2C=C(c3nc(Nc4ncc(C)s4)cc4c3ccn4CC(C)C)CC1CC2 (centres unmarked) [Example 32, 1-(3-(1-isobutyl-6-((5-methylthiazol-2-yl)amino)-1H-pyrrolo[3,2-c]pyridin-4-yl)-8-azabicyclo[3.2.1]oct-2-en-8-yl)prop-2-en-1-one]
 |  | ≤ 20 | ≤ 20 | C=CC(=O)N1C[C@@H](F)[C@H](Oc2nc(Nc3ncc(C)s3)cc3c2ccn3CC2(C(F)(F)F)CC2)C1 [Example 120, 1-((3R,4R)-3-fluoro-4-((6-((5-methylthiazol-2-yl)amino)-1-((1-(trifluoromethyl)cyclopropyl)methyl)-1H-pyrrolo[3,2-c]pyridin-4-yl)oxy)pyrrolidin-1-yl)prop-2-en-1-one]
100 to 500 | 20 to 100 |  |  | C=CC(=O)N1CC=C(c2nc(Nc3cc(C)ncn3)cc3c2ccn3C(C)C)CC1 [Example 44, 1-(4-(1-isopropyl-6-((6-methylpyrimidin-4-yl)amino)-1H-pyrrolo[3,2-c]pyridin-4-yl)-3,6-dihydropyridin-1(2H)-yl)prop-2-en-1-one]
 |  | ≤ 20 | ≤ 20 | C=CC(=O)N1CC=C(c2nc(Nc3ncc(C)s3)cc3c2ccn3C)CC1 [Example 1, 1-(4-(1-methyl-6-((5-methylthiazol-2-yl)amino)-1H-pyrrolo[3,2-c]pyridin-4-yl)-3,6-dihydropyridin-1(2H)-yl)prop-2-en-1-one]
> 500 | > 500 |  |  | C=CC(=O)N1C[C@H](F)[C@H](Oc2nc(Nc3cc(F)ccc3C)cc3c2ccn3C)C1 [Example 139, 1-((3S,4R)-3-fluoro-4-((6-((5-fluoro-2-methylphenyl)amino)-1-methyl-1H-pyrrolo[3,2-c]pyridin-4-yl)oxy)pyrrolidin-1-yl)prop-2-en-1-one]
100 to 500 | ≤ 20 |  |  | C=CC(=O)N1CC[C@H](Oc2nc(Nc3cc[nH]n3)cc3c2ccn3C(C)C)C1 [Example 192, (S)-1-(3-((6-((1H-pyrazol-3-yl)amino)-1-isopropyl-1H-pyrrolo[3,2-c]pyridin-4-yl)oxy)pyrrolidin-1-yl)prop-2-en-1-one]
≤ 20 | ≤ 20 |  |  | C=CC(=O)N1C[C@@H](OC)C[C@@H]1COc1nc(Nc2ncc(C)s2)cc2c1ccn2C(C)C [Example 94, 1-((2R,4S)-2-(((1-isopropyl-6-((5-methylthiazol-2-yl)amino)-1H-pyrrolo[3,2-c]pyridin-4-yl)oxy)methyl)-4-methoxypyrrolidin-1-yl)prop-2-en-1-one]
≤ 20 | ≤ 20 |  |  | C=CC(=O)N1C[C@@H](Oc2nc(Nc3ncc(C)s3)cc3c2ccn3CC)C[C@@H]1C [Example 186, 1-((2S,4S)-4-((1-ethyl-6-((5-methylthiazol-2-yl)amino)-1H-pyrrolo[3,2-c]pyridin-4-yl)oxy)-2-methylpyrrolidin-1-yl)prop-2-en-1-one]
 |  | ≤ 20 | ≤ 20 | C=CC(=O)N1CC=C(c2nc(Nc3ncc(C)s3)cc3c2ccn3C(C)(C)C#N)CC1 [Example 22, 2-(4-(1-acryloyl-1,2,3,6-tetrahydropyridin-4-yl)-6-((5-methylthiazol-2-yl)amino)-1H-pyrrolo[3,2-c]pyridin-1-yl)-2-methylpropanenitrile]
≤ 20 | ≤ 20 |  |  | C=CC(=O)N1CCC12CC(Oc1nc(Nc3ncc(C)s3)cc3c1ccn3C)C2 (centres unmarked) [Example 136, 1-(6-((1-methyl-6-((5-methylthiazol-2-yl)amino)-1H-pyrrolo[3,2-c]pyridin-4-yl)oxy)-1-azaspiro[3.3]heptan-1-yl)prop-2-en-1-one]
≤ 20 | ≤ 20 |  |  | C=CC(=O)N1C[C@H](F)[C@H](Oc2nc(Nc3ncc(C#N)s3)cc3c2ccn3CC(C)C)C1 [Example 181, 2-((4-(((3R,4S)-1-acryloyl-4-fluoropyrrolidin-3-yl)oxy)-1-isobutyl-1H-pyrrolo[3,2-c]pyridin-6-yl)amino)thiazole-5-carbonitrile]
 |  | ≤ 20 | ≤ 20 | C=CC(=O)N1CC=C(c2nc(Nc3ncc(C)s3)cc3c2ccn3C2CCCC2)CC1 [Example 5, 1-(4-(1-cyclopentyl-6-((5-methylthiazol-2-yl)amino)-1H-pyrrolo[3,2-c]pyridin-4-yl)-3,6-dihydropyridin-1(2H)-yl)prop-2-en-1-one]
≤ 20 | ≤ 20 |  |  | C=CC(=O)N1C[C@@H](F)[C@H](Oc2nc(Nc3ncc(C)s3)cc3c2ccn3C2CCCC2)C1 [Example 110, 1-((3R,4R)-3-((1-cyclopentyl-6-((5-methylthiazol-2-yl)amino)-1H-pyrrolo[3,2-c]pyridin-4-yl)oxy)-4-fluoropyrrolidin-1-yl)prop-2-en-1-one]
≤ 20 | ≤ 20 |  |  | C=CC(=O)N1C[C@@H](Oc2nc(Nc3ncc(C)s3)cc3c2ccn3CC2CC2)C[C@H]1C [Example 98, 1-((2R,4S)-4-((1-(cyclopropylmethyl)-6-((5-methylthiazol-2-yl)amino)-1H-pyrrolo[3,2-c]pyridin-4-yl)oxy)-2-methylpyrrolidin-1-yl)prop-2-en-1-one]
≤ 20 | ≤ 20 |  |  | C#CC(=O)N1CC[C@H](Oc2nc(Nc3ncc(C)s3)cc3c2ccn3CC(C)C)C1 [Example 225, (S)-1-(3-((1-isobutyl-6-((5-methylthiazol-2-yl)amino)-1H-pyrrolo[3,2-c]pyridin-4-yl)oxy)pyrrolidin-1-yl)prop-2-yn-1-one]
> 500 | > 500 |  |  | C=CC(=O)N1CCC2(CCC(Oc3nc(Nc4ncc(C)s4)cc4c3ccn4CC(C)C)C2)C1 (centres unmarked) [Example 204, 1-(7-((1-isobutyl-6-((5-methylthiazol-2-yl)amino)-1H-pyrrolo[3,2-c]pyridin-4-yl)oxy)-2-azaspiro[4.4]nonan-2-yl)prop-2-en-1-one]

Compound | IC50 (ITK; [1]) [nM] | IC50 (BTK; [2]) [nM] | IC50 (ITK; [3]) [nM] | IC50 (BTK; [4]) [nM]
C=CC(=O)N1C2C=C(c3nc(Nc4ncc(C)s4)cc4c3ccn4CC(F)(F)F)CC1CC2 (centres unmarked) [Example 35, 1-(3-(6-((5-methylthiazol-2-yl)amino)-1-(2,2,2-trifluoroethyl)-1H-pyrrolo[3,2-c]pyridin-4-yl)-8-azabicyclo[3.2.1]oct-2-en-8-yl)prop-2-en-1-one] | ≤ 20 | ≤ 20 |  | 

Reference: patent publication EP4707277A1, “NOVEL HETEROCYCLIC AMINE DERIVATIVES AND PHARMACEUTICAL COMPOSITION COMPRISING SAME” (Daewoong Pharmaceutical Co., Ltd., priority 2023, dated 2024)
